Measurements reported in patent US20090104159A1, “Vascular/Lymphatic Endothelial Cells” (priority 2005, published 2009).

Assays:
hMAPCs [1] = experiment: Blocking of Patched and Notch pathways during hMAPC-EC differentiation; type: cell-based, human; conditions: hMAPC-ECs, 14 days, exogenous VEGF present, cyclopamine 5 μM; for expression of arterial EC markers Hey-2, EphrinB1 and EphrinB2: L-685,458 1 μM
Method: For real time RT-PCR Syber Green and Taq Man® methods were used as described (Hong et al., 2004). GAPDH was used as a housekeeping control. […] Primers used for both RT-PCR and real time PCR are shown below in Table 2.
Blocking of Patched and Notch pathways was performed using cyclopamine Watkins et al., 2003) (Biomol) at 5 μM (added every 4-5 days with media change) and 1 μM of esecretase inhibitor L-685,458 (Bachem) (Dahlqvist et al., 2003), respectively. Exogenous VEGF was present in the media for the blocking experiments (no exogenous Shh or Dll-4).

human MAPCs = conditions: about 10 ng/mL LIF, till 25 cell doublings; cited from earlier work
murine MAPCs = conditions: about 10 ng/mL LIF added to PDGF-BB and EGF; cited from earlier work
hMAPCs [2] = experiment: Smooth muscle differentiation from hMAPCs; type: cell-based, human; conditions: hMAPCs treated for 6 days, Q-RT-PCR and immunofluorescence
Method: Smooth muscle differentiation: hMAPCs were plated at 1×10^3 cells/cm^2 in growth media (58% low-glucose DMEM (Gibco BRL), 40% MCDB-201 (Sigma), 2% fetal calf serum (FCS) (Biochrom), ITS+1 (Sigma), 10^−8 M dexamethasone (Sigma), 10^−8 M ascorbic acid 2-phosphate (Sigma), 100 U penicillin, 1000 U streptomycin (Gibco BRL) and 10 ng/mL each of PDGF-BB and EGF during 24 hours and then media was exchanged with the same basal media, without FCS, EGF but now with 10 ng/ml TGF-β1. Media was changed every 4-5 days.

mouse MAPCs = experiment: Endothelial differentiation of mouse MAPCs (qRT-PCR); type: cell-based; conditions: Shh-antibody 0.5 micrograms/ml, cyclopamine 10 micromolar
Method: (§1) Glass 4-well chambers with were coated with 1 μg/ml human fibronectin (Sigma, F0895) for about 30 minutes to about 1 hour in the 37° C. incubator. The cells were collected (with the use of 0.05% trypsin), counted and resuspended at 120K/ml in mouse MAPC culture media (see above). The fibronectin was taken off and the cells were seeded (1 ml per well) (=Day 0). The cells were then incubated at 37° C., 5% O2 overnight. […] The media was changed 50% (using differentiation media) on day 4 and from then on, media changed 50% every other day. For rat cells, the differentiation media contained 2% serum.

rat MAPCs = experiment: Endothelial differentiation of rat MAPCs (qRT-PCR); type: cell-based; conditions: Shh-antibody 0.5 micrograms/ml, cyclopamine 10 micromolar
Method: as §1

hMAPC = experiment: Lymphatic differentiation of hMAPC (real time PCR of Prox-1, Lyve-1, podoplanin); type: cell-based, human; conditions: compared with VEGF165 alone
Method: Arterial and/or venous differentiation was induced by addition of different combinations of the following growth factors: VEGF121 was used at 100 ng/ml and VEGF165 in different combinations with Delta-like 4 (Dll-4), Jagged-1, or Shh (all from R&DSystems) all at 100 ng/ml. Lymphatic differentiation was induced by addition of 100 ng/ml VEGF-C(R&DSystems) and 20 ng/ml bFGF (Sigma). Except for VEGF121, which was added alone, the other factors were added at the same time as VEGF165 in the various described combinations.
For real time RT-PCR Syber Green and Taq Man® methods were used as described (Hong et al., 2004). GAPDH was used as a housekeeping control. Results are presented as fold increase in comparison with the expression of the gene in undifferentiated cells or as percentage of positive control (cord blood derived venous and arterial ECs) (Jaffe et al., 1973; Neuhaus et al., 2003). Primers used for both RT-PCR and real time PCR are shown below in Table 2.

Molecule: CC(C)C[C@H](NC(=O)[C@H](Cc1ccccc1)C[C@@H](O)[C@H](Cc1ccccc1)NC(=O)OC(C)(C)C)C(=O)N[C@@H](Cc1ccccc1)C(N)=O [γ-secretase inhibitor, L-685,458]
- expression of arterial EC markers Hey-2, EphrinB1 and EphrinB2 (hMAPCs [1]): even more pronounced attenuation

Molecule: LIF: leukemia inhibitory factor, culture supplement
- short-term cell growth (human MAPCs): did not affect short-term cell growth
- cell growth (murine MAPCs): significantly enhanced cell growth

Molecule: TGF-β1: growth factor, 10 ng/ml, used for smooth muscle differentiation
- expression of SMC markers (hMAPCs [2]): upregulated expression of SMC markers

Molecule: CC1=C2C[C@H]3[C@@H](CC=C4C[C@@H](O)CC[C@@]43C)[C@@H]2CC[C@]12O[C@@H]1C[C@H](C)CN[C@H]1[C@H]2C [cyclopamine]
- expression of the venous marker EphB4 (hMAPCs [1]): slightly increased
- expression of arterial EC markers Hey-2, EphrinB1 and EphrinB2 (hMAPCs [1]): significantly decreased
- arterial component in the cell cultures (mouse MAPCs): decrease the arterial component
- arterial component in the cell cultures (rat MAPCs): decrease the arterial component

B1: VEGF-C: VEGF family growth factor (R&DSystems) used for lymphatic differentiation (protein, UniProt P49767 112-227, looked up)
Vascular endothelial growth …: AHYNTEILKSIDNEWRKTQCMPREVCIDVGKEFGVATNTFFKPPCVSVYRCGGCCNSEGLQCMNTSTSYLSKTLFEITVPLSQGPKPVTISFANHTSCRCMSKLDVYRQVHSIIRR
- expression of lymphatic genes Prox-1, Lyve-1 and podoplanin (hMAPC): does not enhance expression of these genes more than VEGF165 alone
